From ChEMBL document CHEMBL1201862, “PubChem BioAssay data set” (2004)
Activity calls are given as the source filed them. For most assays here, no stated cut-off is given here; in the data, actives have a measured EC50 and inactives only a lower limit.

Key:
[1] = C. albicans growth with fluconazole, confirmation, fluorescence, retest (AID 2467); type: functional, cell-based
[2] = NIH-3T3 fibroblast cytotoxicity, dose response, cytotoxicity control, cell-based, fluorescence, Alamar Blue, secondary assay (AID 2327); type: functional;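 further: NIH-3T3 mouse fibroblasts cultured with fluconazole at 8 µg/mL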
[3] = inhibitors of SNCA 5'UTR-driven reporter translation, confirmation, H4 neuroglioma cells, luminescence (AID 1988); type: functional, cell-based
[4] = inhibitors of firefly luciferase expression or activity, dose response, H4 neuroglioma cells, luminescence (AID 1990); type: functional, cell-based
[5] = Luminescence Cell-Based Dose Response HTS to Identify Inhibitors of 5'UTR Stem-Loop Driven Prion Protein mRNA Translation in H4 Neuroglioblastoma Cells. [Related pubchem assays: 1827 (Project Summary), 1813 (Primary HTS)]; type: functional
BJ [6] = experiment: cells; type: functional, cell-based; settings: Homo sapiens
BJ [7] = experiment: cytotoxicity toward BJ-TERT fibroblasts, dose response, cell-based, RAS-independent, luminescence (AID 1933); type: functional; settings: Homo sapiens
BJ [8] = experiment: cytotoxicity toward BJ-TERT-LT-ST fibroblasts, dose response, cell-based, RAS-independent, luminescence (AID 1935); type: functional; settings: Homo sapiens;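 further: BJ fibroblasts immortalized with TERT plus LT and ST oncogenes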
[9] = cytotoxicity toward DRD oncogenic fibroblasts, dose response, cell-based, non-viral oncogenic, luminescence (AID 1934); type: functional; settings: Homo sapiens
[10] = target: T1, Polyadenylate-binding protein 1 (Homo sapiens, UniProt P11940); experiment: PABP1 MLLE–PAM2 binding inhibitor potency, dose response, biochemical, fluorescence polarization, FITC-PAM2 peptide (AID 602259); type: functional; settings: read-out: IC50_Mean
[11] = target: T1, Polyadenylate-binding protein 1; experiment: PABP1 MLLE–PAM2 interaction inhibitors, dose response, miRNA deadenylation inhibitor project, biochemical, fluorescence polarization, Cy5-PAM2 peptide, secondary (AID 602260); type: functional; settings: read-out: IC50_Mean
[12] = target: T2, Heat shock factor protein 1 (Mus musculus, UniProt P38532); experiment: HSF1 potentiators in luciferase reporter cells, confirmation, cell-based, NIH3T3, luminescence, dose retest (AID 435004); type: functional;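 further: stress induced by proteasome inhibitor MG132 added 30 min after compound; luciferase reporter driven by HSF1 response element in NIH3T3 cells; actives raise luminescence as potentiators of the MG132 stress response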
T2 sequence (P38532 whole entry): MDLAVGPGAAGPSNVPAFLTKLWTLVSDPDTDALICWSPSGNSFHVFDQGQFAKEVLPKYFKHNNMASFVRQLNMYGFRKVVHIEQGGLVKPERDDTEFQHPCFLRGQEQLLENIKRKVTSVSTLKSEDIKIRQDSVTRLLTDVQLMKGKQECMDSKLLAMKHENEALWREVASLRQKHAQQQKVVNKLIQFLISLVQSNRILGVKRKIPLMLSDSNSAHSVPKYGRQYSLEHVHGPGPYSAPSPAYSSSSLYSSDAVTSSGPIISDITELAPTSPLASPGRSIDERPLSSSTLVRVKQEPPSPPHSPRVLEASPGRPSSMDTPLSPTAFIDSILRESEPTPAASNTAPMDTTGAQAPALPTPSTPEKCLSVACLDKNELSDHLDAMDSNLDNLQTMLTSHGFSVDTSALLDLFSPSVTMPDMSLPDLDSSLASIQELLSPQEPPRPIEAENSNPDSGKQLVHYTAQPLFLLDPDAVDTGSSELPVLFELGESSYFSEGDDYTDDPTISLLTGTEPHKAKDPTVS

[13] = Luminescence Cell-Based Dose Confirmation HTS to Identify Inhibitors of Platelet Dense Granule Release. [Related pubchem assays: 1663 (Primary HTS), 1678 (Summary of Project)]; type: functional
[14] = target: Luciferin 4-monooxygenase (Photinus pyralis, UniProt P08659); experiment: firefly luciferase enzyme inhibitors, dose response, biochemical, luminescence (AID 1891)
[15] = system: Streptococcus sp. 'group A'; experiment: growth inhibition of control SK(-) GAS strain, dose response, counter-screen for streptokinase expression inhibitor project, luminescence, kanamycin, BacTiterGlo, confirmation (AID 1900); type: functional, organism-based
Streptococcus = experiment: Group A Streptococcus viability loss, dose response, counter-screen for streptokinase expression inhibitor project, luminescence, BacTiterGlo (AID 1915); type: functional, organism-based;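 further: potency for reduction of bacterial viability or growth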
Streptokinase A = target: T3, Streptokinase A (Streptococcus pyogenes serotype M1, UniProt P10520); experiment: S. pyogenes streptokinase expression inhibitors, potency, dose response, plasminogen activation absorbance, OD405 (AID 1914); type: functional, Streptococcus pyogenes M1 GAS;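 further: secreted streptokinase activity via plasminogen activation per viability signal from cell pellet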
T3 sequence (P10520 whole entry): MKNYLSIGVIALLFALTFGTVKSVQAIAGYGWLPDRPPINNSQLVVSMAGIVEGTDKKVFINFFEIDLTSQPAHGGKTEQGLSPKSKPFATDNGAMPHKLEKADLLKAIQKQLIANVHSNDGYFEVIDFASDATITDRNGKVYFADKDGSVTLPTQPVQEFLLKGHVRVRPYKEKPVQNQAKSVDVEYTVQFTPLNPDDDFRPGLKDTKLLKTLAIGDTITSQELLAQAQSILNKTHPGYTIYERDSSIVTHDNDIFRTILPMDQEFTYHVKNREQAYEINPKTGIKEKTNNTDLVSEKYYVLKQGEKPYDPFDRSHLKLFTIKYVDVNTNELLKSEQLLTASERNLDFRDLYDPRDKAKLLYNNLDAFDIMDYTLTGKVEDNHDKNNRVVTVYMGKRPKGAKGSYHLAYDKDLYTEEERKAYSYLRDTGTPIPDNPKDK

Vero = experiment: cells; type: functional; settings: Chlorocebus sabaeus
H9c2 = experiment: cells; type: functional, cell-based; settings: Rattus norvegicus, H9c2, Myocardium;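 further: confirmatory concentration-response retest of ultra-high-throughput screening hits for modulation of myocardial damage; cell death induced by hydrogen peroxide oxidative stress; compound pretreatment for 60 min then peroxide exposure for 2 h; potency is for protecting the cells against peroxide damage rather than for killing them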
Paired box protein Pax-8 = Paired box protein Pax-8 (Homo sapiens, UniProt Q06710); experiment: inhibitors of PAX8-driven TPO luciferase reporter, dose response, RMG-I cells, cherry-pick (AID 687027); type: functional, cell-based;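 further: luciferase reporter driven by Pax8 target thyroperoxidase promoter measured by SteadyGlo luminescence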
H4 = experiment: Luminescence Cell-Based Dose Response HTS to Identify Activators of 5'UTR Stem-Loop Driven Prion Protein mRNA Translation in H4 Neuroglioblastoma Cells. [Related pubchem assays: 1829 (Project Summary), 1814 (Primary HTS)]; type: functional; settings: Homo sapiens
[16] = Luminescence Cell-Based Dose Confirmation HTS to Identify Activators of 5'UTR Stem-Loop Driven Alpha-Synuclein mRNA Translation in H4 Neuroglioblastoma Cells. [Related pubchem assays: 1829 (Project Summary), 1814 (Primary HTS)]; type: functional
[17] = Luminescence Cell-Based Dose Response HTS to Identify Activators of Luciferase Translation or Activity in H4 […] Cells. [Related pubchem assays: 1829 (Project Summary), 1814 (Primary HTS)]; type: functional
INS1 = experiment: beta cell apoptosis inhibitors, cytokine rescue, dose response, luminescence, retest (AID 449756); type: functional, cell-based; settings: Rattus norvegicus;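 further: cell death triggered by IL-1 beta plus TNF-alpha plus IFN-gamma mixture; protective hits raise ATP signal compared with cytokine alone wells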

T1 sequence (P11940 whole entry): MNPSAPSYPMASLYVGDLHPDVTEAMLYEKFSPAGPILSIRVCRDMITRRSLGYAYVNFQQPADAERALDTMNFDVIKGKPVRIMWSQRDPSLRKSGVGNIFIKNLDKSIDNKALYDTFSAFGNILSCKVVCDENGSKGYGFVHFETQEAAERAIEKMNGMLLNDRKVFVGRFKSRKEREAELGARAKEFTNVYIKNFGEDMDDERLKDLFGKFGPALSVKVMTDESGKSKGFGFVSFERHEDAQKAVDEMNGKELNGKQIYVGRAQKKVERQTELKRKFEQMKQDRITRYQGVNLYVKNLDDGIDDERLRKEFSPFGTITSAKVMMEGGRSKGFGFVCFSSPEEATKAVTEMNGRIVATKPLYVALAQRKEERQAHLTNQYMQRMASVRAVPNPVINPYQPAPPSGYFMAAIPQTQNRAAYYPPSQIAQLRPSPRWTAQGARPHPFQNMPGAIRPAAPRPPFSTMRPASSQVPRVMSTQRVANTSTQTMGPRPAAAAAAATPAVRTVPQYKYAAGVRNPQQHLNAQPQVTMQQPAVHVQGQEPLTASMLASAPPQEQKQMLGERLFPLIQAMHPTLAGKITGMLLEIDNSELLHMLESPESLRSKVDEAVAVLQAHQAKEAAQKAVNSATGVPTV
Luciferin 4-monooxygenase, sequence (P08659 whole entry): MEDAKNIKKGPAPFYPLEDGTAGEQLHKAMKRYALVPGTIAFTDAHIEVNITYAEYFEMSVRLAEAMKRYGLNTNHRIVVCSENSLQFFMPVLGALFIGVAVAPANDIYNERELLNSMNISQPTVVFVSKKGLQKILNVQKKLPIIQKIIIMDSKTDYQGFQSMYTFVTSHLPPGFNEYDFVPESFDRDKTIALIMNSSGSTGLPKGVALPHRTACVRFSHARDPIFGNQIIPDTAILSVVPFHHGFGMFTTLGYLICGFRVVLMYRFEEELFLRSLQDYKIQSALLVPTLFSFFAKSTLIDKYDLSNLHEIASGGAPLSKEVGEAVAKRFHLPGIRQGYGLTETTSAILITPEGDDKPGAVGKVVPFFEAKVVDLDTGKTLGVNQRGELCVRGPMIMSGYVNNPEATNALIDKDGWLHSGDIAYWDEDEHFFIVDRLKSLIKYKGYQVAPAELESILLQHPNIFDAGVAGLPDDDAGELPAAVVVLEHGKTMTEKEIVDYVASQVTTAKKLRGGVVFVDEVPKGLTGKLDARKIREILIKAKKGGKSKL
Paired box protein Pax-8, sequence (Q06710 whole entry): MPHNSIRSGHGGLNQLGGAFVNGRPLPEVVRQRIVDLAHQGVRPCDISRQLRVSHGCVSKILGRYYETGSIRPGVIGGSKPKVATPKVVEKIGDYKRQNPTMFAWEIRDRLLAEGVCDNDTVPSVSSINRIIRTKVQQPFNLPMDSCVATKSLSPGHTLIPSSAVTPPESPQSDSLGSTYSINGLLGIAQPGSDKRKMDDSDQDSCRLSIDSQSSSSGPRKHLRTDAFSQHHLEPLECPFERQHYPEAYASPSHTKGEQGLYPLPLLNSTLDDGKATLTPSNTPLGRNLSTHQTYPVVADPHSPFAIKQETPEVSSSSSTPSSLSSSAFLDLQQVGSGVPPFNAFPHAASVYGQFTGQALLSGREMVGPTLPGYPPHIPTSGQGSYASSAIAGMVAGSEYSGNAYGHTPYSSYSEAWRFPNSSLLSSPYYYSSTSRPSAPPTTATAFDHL

With O=C(Nc1ccc(OCc2ccccc2Cl)cc1)c1cccnc1 the EC50 [1] was > 38 µM (not active), the EC50 [2] was > 150 µM (inactive) and the EC50 [3] was 0.485 µM (active). For the same compound, the EC50 [4] was 3.07 µM (active) and the EC50 [5] was 0.909 µM (active).

In the case of N#CC1=C(N)Oc2cc(N)ccc2C1c1cccc(F)c1 (stereo not given), the EC50 (BJ [6]) is reported as 34 µM (active), the EC50 (BJ [7]) is reported as 10.8 µM (active) and the EC50 (BJ [8]) is reported as 14.2 µM (inconclusive). For the same compound, the EC50 [9] was 16.5 µM (active).

With COc1ccc(NC(=O)CSc2nnc(NC(C)=O)s2)c([N+](=O)[O-])c1 the IC50 [10] was > 66 µM (inactive) and the IC50 [11] was > 66 µM (inactive).

For CCc1ccc(N(C(=O)c2snc(C(N)=O)c2N)C(C(=O)NCCC(C)C)c2c[nH]c3ccccc23)cc1 (stereo not given), the EC50 [12] was 139 µM (active).

In the case of Cn1c(=O)c2c(nc(SCCN3CCOCC3)n2Cc2ccccc2Cl)n(C)c1=O, the EC50 [13] is reported as > 112 µM (not active) and the EC50 [14] is reported as > 112 µM (not active).

In the case of CC(C)OC(=O)c1c2nc3ccccc3nc2n2c1nc(O)c1ccccc12, the EC50 [15] is reported as 1.24 µM (active), the EC50 (Streptococcus) is reported as 39.6 µM (active) and the EC50 (Streptokinase A) is reported as > 150 µM (not active).

With COc1ccc(C=C2c3ccccc3C(=O)c3ccccc32)c(OC)c1 the EC50 (BJ [6]) was 2.33 µM (inconclusive), the EC50 (BJ [7]) was 2.8 µM (inconclusive) and the EC50 (BJ [8]) was 18.3 µM (inconclusive). For the same compound, the EC50 [9] was 2.6 µM (active) and the CC50 (Vero) was < 0.05 µM (active).

In the case of COC(=O)c1ccc(Cl)c(NC(=O)CSc2nnc(-c3ccncc3)o2)c1, the EC50 [15] is reported as > 150 µM (not active), the EC50 (Streptococcus) is reported as > 150 µM (not active) and the EC50 (Streptokinase A) is reported as > 150 µM (not active).

For COc1ccc(C(=O)NC2CCN(C(S)=NCc3ccco3)CC2)cc1, the EC50 [12] was > 260 µM (inactive).

For CN(C)CCOC1(Cc2ccc(F)cc2)CCC(C(C)(C)C)CC1 (stereo not given), the CC50 (Vero) was > 25 µM (active).

With COc1ccc(OC(=O)N2C/C(=C/c3ccccc3)C(=O)/C(=C\c3ccccc3)C2)cc1 the CC50 (Vero) was 9.88 µM (active).

In the case of C=CCc1ccccc1OCC(=O)N/N=C/c1ccc(OC(C)=O)cc1OC(C)=O, the IC50 (H9c2) is reported as > 79 µM (inactive), the EC50 [3] is reported as 10.6 µM (active) and the EC50 [4] is reported as 12.3 µM (active). The EC50 [5] was 14.6 µM (active).

With C[C@@H]1CCCCO[C@@H](CN(C)C(=O)C2CCCCC2)[C@H](C)CN([C@H](C)CO)C(=O)c2cc(NS(=O)(=O)c3ccc(Cl)cc3)ccc2O1 the AC50 (Paired box protein Pax-8) was 4.99 µM (active).

With COc1ccc2o/c(=N\O)c(C(=O)Nc3ccc(C)cc3)cc2c1 the EC50 (H4) was 15.2 µM (active), the EC50 [16] was 16.6 µM (active) and the EC50 [17] was 14.1 µM (active). The CC50 (Vero) was > 25 µM (active).

In the case of Cc1ccc(-c2nc(N/N=C/c3cccnc3)c3ccccc3n2)cc1, the EC50 [13] is reported as 1.02 µM (active), the EC50 [14] is reported as 0.798 µM (active) and the AC50 (INS1) is reported as 6.77 µM (active).

For COc1ccc(/N=C2/C(=N\c3ccc(OC)cc3)N(c3ccc(OC)cc3)C(=S)N2C(=O)c2ccc(OC)cc2)cc1, the EC50 [12] was > 260 µM (inactive).

In the case of CCn1cc(/C=N\NC(=O)c2ccc3c(c2)c(C)c(C)n3Cc2ccccc2)c(C)n1, the EC50 (BJ [6]) is reported as > 150 µM (not active), the EC50 (BJ [7]) is reported as > 150 µM (not active) and the EC50 (BJ [8]) is reported as > 150 µM (not active). The EC50 [9] was > 150 µM (not active).
